Read-outs that look alike come from different tables or passages of the source.
Test system: p-ERK level in GP2D cells
Experiment: Detection of p-ERK level in GP2D cells (HTRF)
Type: cell-based
Conditions: 3 hours incubation, read-out: GP2D pERK IC50
Description: GP2D cell line (DMEM+10% FBS+1% penicillin/streptomycin) was purchased from ECACC; RPMI-1640 medium was purchased from Gibco; fetal bovine serum was purchased from Hyclone; Advanced Phospho-ERK1/2(THR202/TYR204) KIT was purchased from Bioauxilium-Advanced Phospho; ERK1/2(THR202/TYR204) KIT was composed of: Advanced PhosphoERK1/2Eu Cryptate antibody, Advanced PhosphoERK1/2 d2 antibody. Blocking reagent (stock solution 100×), Lysis buffer #1 (stock solution 4×), Detection buffer (ready-to-use), with a storage temperature of ≤−16° C. for all.
(1) The cells were seeded in a white-bottomed 384-well cell culture plate, 8 μL of cell suspension per well, each well containing 7,500 cells. The cell plate was placed in a carbon dioxide incubator and incubated overnight at 37° C.;
(2) The test compound was diluted with 100% DMSO to 3 mM as the first concentration, and then diluted with a pipette to 10 concentrations of 3,000, 1,000, 300, 100, 30, 10, 3, 1, 0.3 and 0.1 μM 2 μL of the compound was taken and added to 198 μL of cell starvation medium, mixed well, 15 μL of compound solution was taken and added to 35 μL of cell starvation medium and mixed well. […]
(5) After incubation, a multilabel plate reader was used to read the HTRF excitation: 320 nm, emission: 615 nm, and 665 nm. […]

SMILES | IC50 [nM] | IC50 (GP2d) [nM]
CCn1c(-c2cc(N3CCN(C)CC3)cnc2C(C)OC)c2c3cc(ccc31)-c1csc(n1)CC(NC(=O)C1CC1C(F)F)C(=O)N1NC(C(=O)OCC(C)(C)C2)C2CC1C2 (single isomer, unassigned) [Trifluoroacetate of Compound 8A] | 0.8 | 
[2H]C([2H])([2H])N1CCN(c2cnc([C@H](C)OC)c(-c3c4c5cc(ccc5n3CC)-c3csc(n3)C[C@H](NC(=O)[C@H]3[C@H](C)[C@@H]3C)C(=O)N3N[C@H](C(=O)OCC(C)(C)C4)C4CC3C4)c2)CC1 [Trifluoroacetate of Compound 12A] |  | 0.2

From patent US12458647B2, “Macrocyclic derivative and use thereof” (Guangzhou Joyo Pharmatech Co., Ltd., priority 2022, dated 2025)
